Data reported in article PMC8401859 (Molecules, 2021).
Read-outs that look alike come from different tables or passages of the source. One block for each molecule: values may come before it.

Key:
6×His-CK1δ = 6×His-CK1δ (Homo sapiens, UniProt P48730); experiment: radiometric in vitro kinase reaction, 6×His-CK1δ, phosphate incorporation into α-casein
Experimental: (§1) All in vitro kinase reactions were performed at 30 °C in a total volume of 15 µL containing 25 mM Tris-HCl (pH 7.0), 10 mM MgCl2, 100 µM EDTA and 0.4 pmol [γ-^32P]-ATP. […] GST- or 6×His-tagged CK1δ or CK1ε were used as enzymes in 7, 70 or 335 nM concentration. Additionally, a reaction without enzyme was performed and used to determine the background signal specifying the minimal usable enzyme concentration (signal to background ratio ≥10). Reactions were stopped by adding 3 µL of 5× SDS loading buffer and boiling at 95 °C for 5 min. Proteins were separated by SDS-PAGE and stained with Coomassie Brilliant Blue R250 (Waldeck GmbH & Co. KG, Muenster, Germany). Radioactively labelled proteins were visualized by autoradiography. For quantification, phosphorylated proteins were excised from dried gels and phosphate incorporation was measured via Cherenkov counting.
(§2) Raw data was used to calculate enzyme velocity (V) (phosphate transfer per min). V was plotted over ATP concentration and fitted to the Michaelis-Menten model using GraphPad Prism 7 (GraphPad Software, La Jolla, CA, USA). Km was calculated as the concentration of substrate needed to get half-maximal velocity. In order to determine IC50 values, raw data was transformed from initially measured cpm values to pmol of transferred phosphate. Subsequently data was transformed logarithmically (X = log(X)), normalized to DMSO (100%) and zero (0%) and finally fit to sigmoidal dose-response curves (variable slope) with nonlinear regression using GraphPad Prism 7.

CK1δ [1] = system: CK1δ; parameters: method as in PMID 31817920; settings: ATP 10 µM, read-out: IC50 in Literature; cited from earlier work
GST-CK1δ = GST-CK1δ (Homo sapiens, UniProt P48730); experiment: radiometric in vitro kinase reaction, GST-CK1δ, phosphate incorporation into α-casein
Experimental: as §1, §2

CK1δ [2] = settings: Working Group A, ATP 10 µM; cited from earlier work
CK1δ of yeast origin = settings: Working Group B, ATP 100 µM; cited from earlier work
CK1δ(1–294) = settings: Working Group A, ATP 20 µM; cited from earlier work
6×His-CK1ε [3] = target: T1, 6×His-CK1ε (Homo sapiens, UniProt P49674); experiment: radiometric in vitro kinase reaction, 6×His-CK1ε, phosphate incorporation into α-casein; format: biochemical
T1 construct: made in house
Experimental: as §1
Raw data was used to calculate enzyme velocity (V) (phosphate transfer per min). V was plotted over ATP concentration and fitted to the Michaelis-Menten model using GraphPad Prism 7 (GraphPad Software, La Jolla, CA, USA). Km was calculated as the concentration of substrate needed to get half-maximal velocity. In order to determine IC50 values, raw data was transformed from initially measured cpm values to pmol of transferred phosphate. […]

CK1εΔ319 = system: CK1εΔ319; parameters: method as in PMID 17502429; settings: Working Group A, CK1εΔ319, ATP 5 µM; cited from earlier work
6×His-CK1ε [4] = system: 6×His-CK1ε; parameters: method as in PMID 19458106; settings: Working Group B, ATP 10 µM; cited from earlier work
untagged CK1δ = system: untagged CK1δ; parameters: method as in PMID 19458106; settings: CK1-specific peptide substrate, ATP 10 µM, luminescence-based, read-out: IC50 in Literature; cited from earlier work

Chain of GST-CK1δ (P48730 whole entry): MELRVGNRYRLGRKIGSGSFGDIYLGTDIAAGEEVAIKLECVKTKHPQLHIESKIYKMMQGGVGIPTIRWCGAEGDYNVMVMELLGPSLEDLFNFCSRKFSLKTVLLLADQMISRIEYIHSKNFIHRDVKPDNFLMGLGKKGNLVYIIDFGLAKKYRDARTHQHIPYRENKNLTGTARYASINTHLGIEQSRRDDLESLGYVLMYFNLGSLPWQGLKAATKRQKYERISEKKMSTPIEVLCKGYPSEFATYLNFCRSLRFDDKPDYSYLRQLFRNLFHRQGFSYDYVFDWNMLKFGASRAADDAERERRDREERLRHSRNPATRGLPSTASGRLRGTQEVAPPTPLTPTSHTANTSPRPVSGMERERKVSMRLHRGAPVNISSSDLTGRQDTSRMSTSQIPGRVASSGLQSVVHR
Chain of 6×His-CK1δ (P48730 whole entry): as above
T1 sequence (P49674 whole entry): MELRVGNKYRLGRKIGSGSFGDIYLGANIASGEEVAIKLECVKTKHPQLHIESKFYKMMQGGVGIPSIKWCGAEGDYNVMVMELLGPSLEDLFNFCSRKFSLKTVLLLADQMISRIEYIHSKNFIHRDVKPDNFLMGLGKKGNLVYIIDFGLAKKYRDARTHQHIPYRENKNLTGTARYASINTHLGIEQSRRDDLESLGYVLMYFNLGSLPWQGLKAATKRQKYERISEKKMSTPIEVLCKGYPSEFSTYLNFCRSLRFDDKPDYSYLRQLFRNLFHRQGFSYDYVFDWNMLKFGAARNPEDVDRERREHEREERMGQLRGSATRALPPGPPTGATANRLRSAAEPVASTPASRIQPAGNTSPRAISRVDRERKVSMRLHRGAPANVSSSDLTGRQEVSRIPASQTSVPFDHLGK

IC50 (6×His-CK1δ; 6×His-CK1δ 70 nM, 10 min, ATP equal to Km (ATP) 14 µM, α-casein 10 µM, 30 °C): 404 nM | Ki (6×His-CK1δ; read-out: Kic, 6×His-CK1δ, Kic = IC50/2 (Cheng-Prusoff, ATP = Km)): 202 nM | IC50 (GST-CK1δ; GST-CK1δ 7 nM, 10 min, ATP equal to Km (ATP) 6 µM, α-casein 10 µM, 30 °C): 396 nM | Ki (GST-CK1δ; read-out: Kic, GST-CK1δ, Kic = IC50/2 (Cheng-Prusoff, ATP = Km)): 198 nM
SMILES: O=C(Nc1nc2ccc(C(F)(F)F)cc2s1)Sc1nccc(=O)n1Cc1ccc(OC(F)(F)F)cc1 [Liu-20]
IC50 (CK1δ [1]): 86 nM

Km (6×His-CK1δ; read-out: Km (ATP), 6×His-CK1δ 70 nM, 10 min, ATP 0.5 to 100 µM, Michaelis-Menten): 14 µM | Km (GST-CK1δ; read-out: Km (ATP), GST-CK1δ 7 nM, 10 min, ATP 0.5 to 100 µM, Michaelis-Menten): 6 µM
SMILES: Nc1ncnc2c1ncn2[C@@H]1O[C@H](COP(=O)(O)OP(=O)(O)OP(=O)(O)O)[C@@H](O)[C@H]1O [ATP]

SMILES: COc1cc(OC)c(C=C2C(O)=Nc3ccccc32)c(OC)c1 [IC261]
IC50 (CK1δ [2]): 1000 nM | IC50 (CK1δ of yeast origin): 2500 nM

SMILES: NC(=O)c1ccc(-c2nc(-c3ccc4c(c3)OCCO4)c(-c3ccccn3)[nH]2)cc1 [D4476]
IC50 (CK1δ(1–294)): 300 nM | IC50 (CK1δ of yeast origin): 200 nM

IC50 (6×His-CK1ε [3]): 72.3 nM | Ki (6×His-CK1ε [3]; 6×His-CK1ε, Kic = IC50/2 (Cheng-Prusoff, ATP = Km)): 36.2 nM
SMILES: Nc1ncnc2c1c(COc1cccc(Cl)c1)nn2C1CCOCC1 [PF-4800567]

SMILES: Nc1nccc(-c2c(-c3ccc(F)cc3)ncn2C2CCCCC2)n1 [PF-670462]
IC50 (CK1εΔ319): 8 nM | IC50 (6×His-CK1ε [4]): 80 nM | IC50 (untagged CK1δ): 13 nM
